Results reported in PubChem BioAssay AID1259407 (Chemical Carcinogenesis Research Information System (CCRIS), 2018).
Activity calls are given as the source filed them. No rule for the calls is given here.

System: CCRIS mutagenicity, Ames/micronucleus/aberration tests
Experiment: CCRIS mutagenicity studies
[1] = Test System: AMES SALMONELLA TYPHIMURIUM, Strain/Indicator: TA98, Metabolic Activation: HAMSTER, LIVER, S-9, AROCLOR 1254 (10%), Method: PREINCUBATION
[2] = Test System: AMES SALMONELLA TYPHIMURIUM, Strain/Indicator: TA98, Metabolic Activation: NONE, Method: PREINCUBATION
[3] = Test System: AMES SALMONELLA TYPHIMURIUM, Strain/Indicator: TA98, Metabolic Activation: RAT, LIVER, S-9, AROCLOR 1254 (10%), Method: PREINCUBATION
[4] = Test System: AMES SALMONELLA TYPHIMURIUM, Strain/Indicator: TA100, Metabolic Activation: HAMSTER, LIVER, S-9, AROCLOR 1254 (10%), Method: PREINCUBATION
[5] = Test System: AMES SALMONELLA TYPHIMURIUM, Strain/Indicator: TA100, Metabolic Activation: NONE, Method: PREINCUBATION
[6] = Test System: AMES SALMONELLA TYPHIMURIUM, Strain/Indicator: TA100, Metabolic Activation: RAT, LIVER, S-9, AROCLOR 1254 (10%), Method: PREINCUBATION
[7] = Test System: AMES SALMONELLA TYPHIMURIUM, Strain/Indicator: TA1535, Metabolic Activation: HAMSTER, LIVER, S-9, AROCLOR 1254 (10%), Method: PREINCUBATION
[8] = Test System: AMES SALMONELLA TYPHIMURIUM, Strain/Indicator: TA1535, Metabolic Activation: NONE, Method: PREINCUBATION
[9] = Test System: AMES SALMONELLA TYPHIMURIUM, Strain/Indicator: TA1535, Metabolic Activation: RAT, LIVER, S-9, AROCLOR 1254 (10%), Method: PREINCUBATION
[10] = Test System: AMES SALMONELLA TYPHIMURIUM, Strain/Indicator: TA100, Metabolic Activation: NONE, Method: STANDARD PLATE

**Q.** Which results are given for `Oc1cccc(Nc2ccccc2)c1`?
**A.** mutagenic call (Test System: AMES SALMONELLA TYPHIMURIUM, Strain/Indicator: TA97, Metabolic Activation: HAMSTER, LIVER, S-9, AROCLOR 1254 (10%), Method: PREINCUBATION): inactive; negative; mutagenic call (Test System: AMES SALMONELLA TYPHIMURIUM, Strain/Indicator: TA97, Metabolic Activation: HAMSTER, LIVER, S-9, AROCLOR 1254 (30%), Method: PREINCUBATION): inactive; negative; mutagenic call (Test System: AMES SALMONELLA TYPHIMURIUM, Strain/Indicator: TA97, Metabolic Activation: NONE, Method: PREINCUBATION): inactive; negative; mutagenic call (Test System: AMES SALMONELLA TYPHIMURIUM, Strain/Indicator: TA97, Metabolic Activation: RAT, LIVER, S-9, AROCLOR 1254 (10%), Method: PREINCUBATION): inactive; negative; mutagenic call (Test System: AMES SALMONELLA TYPHIMURIUM, Strain/Indicator: TA97, Metabolic Activation: RAT, LIVER, S-9, AROCLOR 1254 (30%), Method: PREINCUBATION): inactive; negative; mutagenic call [1]: inactive; negative; mutagenic call (Test System: AMES SALMONELLA TYPHIMURIUM, Strain/Indicator: TA98, Metabolic Activation: HAMSTER, LIVER, S-9, AROCLOR 1254 (30%), Method: PREINCUBATION): inactive; negative; mutagenic call [2]: inactive; negative; mutagenic call [3]: inactive; negative; mutagenic call (Test System: AMES SALMONELLA TYPHIMURIUM, Strain/Indicator: TA98, Metabolic Activation: RAT, LIVER, S-9, AROCLOR 1254 (30%), Method: PREINCUBATION): inactive; negative; mutagenic call [4]: inactive; negative; mutagenic call (Test System: AMES SALMONELLA TYPHIMURIUM, Strain/Indicator: TA100, Metabolic Activation: HAMSTER, LIVER, S-9, AROCLOR 1254 (30%), Method: PREINCUBATION): inactive; negative; mutagenic call [5]: inactive; negative; mutagenic call [6]: inactive; negative; mutagenic call (Test System: AMES SALMONELLA TYPHIMURIUM, Strain/Indicator: TA100, Metabolic Activation: RAT, LIVER, S-9, AROCLOR 1254 (30%), Method: PREINCUBATION): inactive; negative; mutagenic call [7]: inactive; negative; mutagenic call (Test System: AMES SALMONELLA TYPHIMURIUM, Strain/Indicator: TA1535, Metabolic Activation: HAMSTER, LIVER, S-9, AROCLOR 1254 (30%), Method: PREINCUBATION): inactive; negative; mutagenic call [8]: inactive; negative; mutagenic call [9]: inactive; negative; mutagenic call (Test System: AMES SALMONELLA TYPHIMURIUM, Strain/Indicator: TA1535, Metabolic Activation: RAT, LIVER, S-9, AROCLOR 1254 (30%), Method: PREINCUBATION): inactive; negative

**Q.** `[Cl][Rh-2]([Cl])([Cl])([Cl])[Cl]` was tested. Which mutagenic call (Test System: AMES SALMONELLA TYPHIMURIUM, Strain/Indicator: TA97A, Metabolic Activation: NONE, Method: STANDARD PLATE) did it give?
**A.** inactive; negative

**Q.** What about the mutagenic call (Test System: AMES SALMONELLA TYPHIMURIUM, Strain/Indicator: TA97A, Metabolic Activation: RAT, LIVER, S-9, PHENOBARBITAL AND 5,6-BENZOFLAVONE, Method: STANDARD PLATE) of the same compound?
**A.** active; positive

**Q.** And the mutagenic call (Test System: AMES SALMONELLA TYPHIMURIUM, Strain/Indicator: TA97A, Metabolic Activation: RAT, LIVER, S-9, PHENOBARBITAL AND BETA-NAPHTHOFLAVONE, Method: STANDARD PLATE)?
**A.** active; positive

**Q.** And the mutagenic call (Test System: AMES SALMONELLA TYPHIMURIUM, Strain/Indicator: TA98, Metabolic Activation: NONE, Method: STANDARD PLATE)?
**A.** active; positive

**Q.** What about the mutagenic call (Test System: AMES SALMONELLA TYPHIMURIUM, Strain/Indicator: TA98, Metabolic Activation: RAT, LIVER, S-9, PHENOBARBITAL AND 5,6-BENZOFLAVONE, Method: STANDARD PLATE) of the same compound?
**A.** active; positive

**Q.** And the mutagenic call (Test System: AMES SALMONELLA TYPHIMURIUM, Strain/Indicator: TA98, Metabolic Activation: RAT, LIVER, S-9, PHENOBARBITAL AND BETA-NAPHTHOFLAVONE, Method: STANDARD PLATE)?
**A.** active; positive

**Q.** And the mutagenic call [10]?
**A.** inactive; negative

**Q.** What about the mutagenic call (Test System: AMES SALMONELLA TYPHIMURIUM, Strain/Indicator: TA100, Metabolic Activation: RAT, LIVER, S-9, PHENOBARBITAL AND 5,6-BENZOFLAVONE, Method: STANDARD PLATE) of the same compound?
**A.** active; positive

**Q.** And the mutagenic call (Test System: AMES SALMONELLA TYPHIMURIUM, Strain/Indicator: TA100, Metabolic Activation: RAT, LIVER, S-9, PHENOBARBITAL AND BETA-NAPHTHOFLAVONE, Method: STANDARD PLATE)?
**A.** active; positive

**Q.** What about the mutagenic call (Test System: AMES SALMONELLA TYPHIMURIUM, Strain/Indicator: TA102, Metabolic Activation: NONE, Method: STANDARD PLATE) of the same compound?
**A.** active; positive

**Q.** What about the mutagenic call (Test System: AMES SALMONELLA TYPHIMURIUM, Strain/Indicator: TA102, Metabolic Activation: RAT, LIVER, S-9, PHENOBARBITAL AND 5,6-BENZOFLAVONE, Method: STANDARD PLATE) of the same compound?
**A.** active; positive

**Q.** What about the mutagenic call (Test System: AMES SALMONELLA TYPHIMURIUM, Strain/Indicator: TA102, Metabolic Activation: RAT, LIVER, S-9, PHENOBARBITAL AND BETA-NAPHTHOFLAVONE, Method: STANDARD PLATE) of the same compound?
**A.** active; positive

**Q.** For `CCCC(=O)Nc1snc2ccccc12`, which mutagenic call [10] is on record?
**A.** inactive; negative

**Q.** And the mutagenic call (Test System: AMES SALMONELLA TYPHIMURIUM, Strain/Indicator: TA100, Metabolic Activation: S-9, Method: STANDARD PLATE)?
**A.** inactive; negative

**Q.** Which mutagenic call (End Point: IN VITRO MICRONUCLEUS, Test System: HAMSTER V79 CELLS, Metabolic Activation: NONE) does the source give for `[Cl][Pb][Cl]` here?
**A.** active; positive (aneugenic above 1.1 um)

**Q.** What about the mutagenic call (Test System: CHINESE HAMSTER OVARY, Strain/Indicator: CHO-AS52/6-THIOGUANINE, Metabolic Activation: NONE) of the same compound?
**A.** active; positive

**Q.** And the mutagenic call (Test System: CHINESE HAMSTER V-79, Strain/Indicator: SP5 V-79 (HPRT)/6-THIOGUANINE, Metabolic Activation: NONE, Method: STANDARD PLATE)?
**A.** inactive; negative

**Q.** What about the mutagenic call (Test System: CHINESE HAMSTER V-79, Strain/Indicator: SPD8 V-79 (HPRT)/6-THIOGUANINE, Metabolic Activation: NONE, Method: STANDARD PLATE) of the same compound?
**A.** inactive; negative

**Q.** `C=C(C#N)C(=O)OC` was tested. Which mutagenic call [1] did it give?
**A.** inactive; negative

**Q.** What about the mutagenic call [2] of the same compound?
**A.** inactive; negative

**Q.** What about the mutagenic call [3] of the same compound?
**A.** inactive; negative

**Q.** What about the mutagenic call [4] of the same compound?
**A.** active; positive

**Q.** And the mutagenic call [5]?
**A.** active; positive

**Q.** And the mutagenic call (Test System: AMES SALMONELLA TYPHIMURIUM, Strain/Indicator: TA100, Metabolic Activation: NONE, Method: SPOT TEST)?
**A.** active; positive

**Q.** What about the mutagenic call [10] of the same compound?
**A.** active; positive

**Q.** What about the mutagenic call [6] of the same compound?
**A.** active; positive

**Q.** And the mutagenic call (Test System: AMES SALMONELLA TYPHIMURIUM, Strain/Indicator: TA100, Metabolic Activation: RAT, LIVER, S-9, AROCLOR 1254, Method: SPOT TEST)?
**A.** active; positive

**Q.** What about the mutagenic call (Test System: AMES SALMONELLA TYPHIMURIUM, Strain/Indicator: TA100, Metabolic Activation: RAT, LIVER, S-9, AROCLOR 1254, Method: STANDARD PLATE) of the same compound?
**A.** active; positive

**Q.** What about the mutagenic call [7] of the same compound?
**A.** inactive; negative

**Q.** What about the mutagenic call [8] of the same compound?
**A.** inactive; negative

**Q.** And the mutagenic call [9]?
**A.** inactive; negative

**Q.** What about the mutagenic call (Test System: AMES SALMONELLA TYPHIMURIUM, Strain/Indicator: TA1537, Metabolic Activation: HAMSTER, LIVER, S-9, AROCLOR 1254 (10%), Method: PREINCUBATION) of the same compound?
**A.** inactive; negative

**Q.** And the mutagenic call (Test System: AMES SALMONELLA TYPHIMURIUM, Strain/Indicator: TA1537, Metabolic Activation: NONE, Method: PREINCUBATION)?
**A.** inactive; negative

**Q.** What about the mutagenic call (Test System: AMES SALMONELLA TYPHIMURIUM, Strain/Indicator: TA1537, Metabolic Activation: RAT, LIVER, S-9, AROCLOR 1254 (10%), Method: PREINCUBATION) of the same compound?
**A.** inactive; negative
